Measurements published in US20260130933A1, “PHARMACEUTICAL COMPOSITION FOR PREVENTION OR TREATMENT OF NEPHROPATHY AND/OR DIABETES MELLITUS, COMPRISING ENAVOGLIFLOZIN” (DAEWOONG PHARMACEUTICAL CO., LTD., priority 2022, published 2026).

Test: Example 3: phase 3 trial, enavogliflozin 0.3 mg vs dapagliflozin 10 mg once a day for 24 weeks added to metformin and gemigliptin in patients with type 2 diabetes (same endpoints, rescue drug)
Assay type: in vivo, human
Details: for Subjects achieving therapeutic glycemic response 2, %: response 2 = HbA1c change >0.7% or HbA1c <7%; for Subjects achieving therapeutic glycemic response 3, %: response 3 = HbA1c change >1% or HbA1c <7%
Method: 1) when Metformin (≥1,000 mg/Day) was Administered at a Constant Dose for at Least 8 Weeks Prior to Pre-Visit (Pre-Screening) • Metformin (≥1,000 mg/day) and gemigliptin (50 mg/day) were co-administered during the 8-week stabilization period. […] 4) when Metformin (≥1,000 mg/Day) and Gemigliptin (50 mg/Day) were Co-Administered at Constant Doses for at Least 8 Weeks Prior to Pre-Visit (Prescreening) • Without a separate stabilization period, Pre-visit (pre-screening) was Visit 1 (screening).
Subjects who met the inclusion/exclusion criteria continued to receive metformin and gemigliptin while receiving a placebo of the clinical trial drug in a single-blind (subject-blinded) state for a 2-week run-in period.
Here, the randomized subjects were stratified according to the administration therapy (co-administration with two or less agents (one or two agents) or three or more agents) of a conventional hypoglycemic agent (before washout of another hypoglycemic agent) within 24 weeks prior to obtaining written informed consent and by an HbA1c value (<8% or ≥8%) at Visit 1 (screening) measured in the central laboratory.
The randomized subjects were administered two tablets of the clinical trial drug corresponding to each administration group once a day, and then visited the institution at weeks 6, 12, 18, and 24 during the 24-week administration period to conduct efficacy and safety assessments. In addition, during the clinical trial period, they were instructed to exercise regularly and control their diet without changing their daily life patterns.
• 1) Change in HbA1c at week 24 after administration of clinical trial drug compared to Visit 2 (randomization)
• 1) Change in HbA1c at each time point of weeks 6, 12, and 18 after administration of clinical trial drug compared to Visit 2 (randomization) • 2) Change in FPG at each time point of weeks 6, 12, 18, and 24 after administration of clinical trial drug compared to Visit 2 (randomization) • 3) Proportion of subjects achieving HbA1c<7% at each time point of weeks 6, 12, 18, and 24 after administration of clinical trial drug • 4) Proportion of subjects achieving HbA1c<6.5% at each time point of weeks 6, 12, 18, and 24 after administration of clinical trial drug • 5) Proportion of subjects achieving therapeutic response (HbA1c change (HbA1c at Visit 2—HbA1c at each evaluation time point)>0.5% or HbA1c<7% at each evaluation time point compared to Visit 2 (randomization)) at each time point of weeks 6, 12, 18, and 24 after administration of clinical trial drug • 6) Proportion of subjects achieving therapeutic response (HbA1c change (HbA1c at Visit 2—HbA1c at each evaluation time point)>0.7% or HbA1c<7% at each evaluation time point compared to Visit 2 (randomization)) at each time point of weeks 6, 12, 18, and 24 after administration of clinical trial drug • 7) Proportion of subjects achieving therapeutic response (HbA1c change (HbA1c at Visit 2—HbA1c at each evaluation time point)>1% or HbA1c<7% at each evaluation time point compared to Visit 2 (randomization)) at each time point of weeks 6, 12, 18, and 24 after administration of clinical trial drug

[1] = week 18, per-protocol set, enavogliflozin 0.3 mg, dapagliflozin 10 mg
[2] = week 24, modified per-protocol set 1, enavogliflozin 0.3 mg vs dapagliflozin 10 mg
[3] = week 24, modified per-protocol set 1, enavogliflozin 0.3 mg, dapagliflozin 10 mg
[4] = week 24, modified per-protocol set 2
[5] = week 24, modified per-protocol set 2, enavogliflozin 0.3 mg, dapagliflozin 10 mg
[6] = week 24, per-protocol set, enavogliflozin 0.3 mg vs dapagliflozin 10 mg
[7] = week 24, per-protocol set, enavogliflozin 0.3 mg, dapagliflozin 10 mg

## OC[C@H]1O[C@@H](c2cc(Cc3ccc(C4CC4)cc3)c(Cl)c3c2CCO3)[C@H](O)[C@@H](O)[C@@H]1O [Enavogliflozin, (2S,3R,4R,5S,6R)-2-(7-chloro-6 (4-cyclopropylbenzyl)-2,3-dihydrobenzofuran-4-yl)-6-(hydroxymethyl)tetrahydro-2H-pyran-3,4,5-triol]
[1]
  HbA1c, Median: 6.87%
  Subjects achieving HbA1c target of <6.5%, (%): 14.53%
  Subjects achieving HbA1c target of <7%, %: 63.25%
  body weight, Median: 65.40 kg
  Subjects achieving therapeutic glycemic response 2, %: 77.78%
  Subjects achieving therapeutic glycemic response 3, %: 74.36%
Week 24
  FPG change from baseline, LS mean (SE): −27.21(1.81) mg/dL
  HDL-C change from baseline, LS mean (SE): 4.32(0.71) mg/dL
  HOMA-IR change from baseline, LS mean (SE): −1.09(0.11)
  HOMA-β change from baseline, LS mean (SE): 1.09(4.79)
  HbA1c change from baseline, LS mean (SE): −0.92(0.05) % p
  HbA1c change from baseline, Mean (SD): −0.93(0.70) % p
  LDL-C change from baseline, LS mean (SE): 0.85(1.89) mg/dL
  UACR change from baseline, LS mean (SE): −15.34 (3.93) g/kg
  UGCR change from baseline, LS mean (SE): 60.22(2.31) mg/mg
  adiponectin change from baseline, LS mean (SE): 1.42(0.35) μg/mL
  body weight change from baseline, LS mean (SE): −3.15(0.23) kg
  diastolic blood pressure change from baseline, LS mean (SE): −2.55(0.72) mmHg
  fasting C-peptide change from baseline, LS mean (SE): −0.09(0.02) ng/ml
  leptin change from baseline, LS mean (SE): −1.46(0.52) ng/mL
  systolic blood pressure change from baseline, LS mean (SE): −4.49(0.96) mmHg
  total cholesterol change from baseline, LS mean (SE): 4.48(2.07) mg/dL
  triglyceride change from baseline, LS mean (SE): −8.22(4.01) mg/dL
Week 24, FAS, vs dapagliflozin
  Odds ratio for administering the rescue drug: 0.36
Week 24, vs dapagliflozin
  FPG change from baseline, LS mean difference: -3.49 mg/dL
  HDL-C change from baseline, LS mean difference: -0.08 mg/dL
  HOMA-IR change from baseline, LS mean difference: −0.16
  HOMA-β change from baseline, LS mean difference: −4.69
  HbA1c change from baseline, LS mean difference: −0.06 % p
  LDL-C change from baseline, LS mean difference: -2.27 mg/dL
  Odds ratio for achieving HbA1c<6.5%: 1.27
  Odds ratio for achieving HbA1c<7%: 1.17
  Odds ratio, therapeutic response (HbA1c change >0.5% or HbA1c<7%): 1.15
  Odds ratio, therapeutic response (HbA1c change >0.7% or HbA1c<7%): 0.98
  Odds ratio, therapeutic response (HbA1c change >1% or HbA1c<7%): 1.22
  UACR change from baseline, LS mean difference: 0.79 g/kg
  UGCR change from baseline, LS mean difference: 16.71 mg/mg
  adiponectin change from baseline, LS mean difference: 0.49 µg/mL
  body weight change from baseline, LS mean difference: -0.15 kg
  diastolic blood pressure change from baseline, LS mean difference: −0.66 mmHg
  fasting C-peptide change from baseline, LS mean difference: -0.01 ng/mL
  leptin change from baseline, LS mean difference: -0.89 ng/mL
  systolic blood pressure change from baseline, LS mean difference: −0.22 mmHg
  total cholesterol change from baseline, LS mean difference: -1.09 mg/dL
  triglyceride change from baseline, LS mean difference: 0.56 mg/dL
[2]
  Change from baseline in HDL-C, ANCOVA LS mean difference: -0.08 mg/dL
  Change from baseline in LDL-C, ANCOVA LS mean difference: -2.27 mg/dL
  Change from baseline in total cholesterol, ANCOVA LS mean difference: -1.09 mg/dL
  Change from baseline in triglycerides, ANCOVA LS mean difference: 0.56 mg/dL
[3]
  Change from baseline in HDL-C, ANCOVA LS mean: 4.32 mg/dL
  Change from baseline in HDL-C, Mean: 4.53 mg/dL
  Change from baseline in HDL-C, Median: 4.00 mg/dL
  Change from baseline in LDL-C, ANCOVA LS mean: 0.85 mg/dL
  Change from baseline in LDL-C, Mean: 1.75 mg/dL
  Change from baseline in LDL-C, Median: 0.50 mg/dL
  Change from baseline in total cholesterol, ANCOVA LS mean: 4.48 mg/dL
  Change from baseline in total cholesterol, Mean: 5.59 mg/dL
  Change from baseline in total cholesterol, Median: 5.50 mg/dL
  Change from baseline in triglycerides, ANCOVA LS mean: -8.22 mg/dL
  Change from baseline in triglycerides, Mean: -6.05 mg/dL
  Change from baseline in triglycerides, Median: -1.00 mg/dL
  Fasting HDL-C, Mean: 50.58 mg/dL
  Fasting HDL-C, Median: 48.50 mg/dL
  Fasting LDL-C, Mean: 73.15 mg/dL
  Fasting LDL-C, Median: 70.50 mg/dL
  Fasting total cholesterol, Mean: 140.06 mg/dL
  Fasting triglycerides, Mean: 113.01 mg/dL
  Fasting triglycerides, Median: 101.00 mg/dL
  fasting Total cholesterol, Median: 134.00 mg/dL
[4]
  Change from baseline in diastolic blood pressure, ANCOVA LS mean: −2.55 mmHg
  Change from baseline in diastolic blood pressure, LS mean difference (enavogliflozin − dapagliflozin): −0.66 mmHg
  Change from baseline in diastolic blood pressure, Mean: −3.19 mmHg
  Change from baseline in diastolic blood pressure, Median: −3.00 mmHg
  Diastolic blood pressure, Mean: 73.40 mmHg
  Diastolic blood pressure, Median: 73.50 mmHg
Week 24, modified per-protocol set 2, enavogliflozin 0.3 mg vs dapagliflozin 10 mg
  Change from baseline in systolic blood pressure, ANCOVA LS mean difference: −0.22 mmHg
[5]
  Change from baseline in systolic blood pressure, ANCOVA LS mean: −4.49 mmHg
  Change from baseline in systolic blood pressure, Mean: −5.20 mmHg
  Change from baseline in systolic blood pressure, Median: −5.00 mmHg
  Systolic blood pressure, Mean: 122.29 mmHg
  Systolic blood pressure, Median: 121.00 mmHg
Week 24, per-protocol set
  Adiponectin, Mean: 7.62 µg/mL
  Adiponectin, Median: 6.49 µg/mL
  Change from baseline in HOMA-IR, ANCOVA LS mean: −1.09
  Change from baseline in HOMA-IR, LS mean difference (enavogliflozin − dapagliflozin): −0.16
  Change from baseline in HOMA-IR, Mean: −1.07
  Change from baseline in HOMA-IR, Median: −0.80
  Change from baseline in HOMA-β, ANCOVA LS mean: 1.09
  Change from baseline in HOMA-β, LS mean difference (enavogliflozin − dapagliflozin): −4.69
  Change from baseline in HOMA-β, Mean: 2.57
  Change from baseline in HOMA-β, Median: 5.70
  Change from baseline in UACR, ANCOVA LS mean: -15.34 g/kg
  Change from baseline in UACR, LS mean difference (enavogliflozin − dapagliflozin): 0.79 g/kg
  Change from baseline in UACR, Mean: -19.52 g/kg
  Change from baseline in UACR, Median: -1.55 g/kg
  Change from baseline in UGCR, ANCOVA LS mean: 60.22 mg/mg
  Change from baseline in UGCR, LS mean difference (enavogliflozin − dapagliflozin): 16.71 mg/mg
  Change from baseline in UGCR, Mean: 59.39 mg/mg
  Change from baseline in UGCR, Median: 55.98 mg/mg
  Change from baseline in adiponectin, ANCOVA LS mean: 1.42 µg/mL
  Change from baseline in adiponectin, LS mean difference (enavogliflozin − dapagliflozin): 0.49 µg/mL
  Change from baseline in adiponectin, Mean: 1.39 µg/mL
  Change from baseline in adiponectin, Median: 1.11 µg/mL
  Change from baseline in leptin, ANCOVA LS mean: -1.46 ng/mL
  Change from baseline in leptin, LS mean difference (enavogliflozin − dapagliflozin): -0.89 ng/mL
  Change from baseline in leptin, Mean: -1.52 ng/mL
  Change from baseline in leptin, Median: -0.91 ng/mL
  HOMA-IR (insulin resistance), Mean: 1.84
  HOMA-IR (insulin resistance), Median: 1.56
  HOMA-β (beta-cell function), Mean: 45.48
  HOMA-β (beta-cell function), Median: 41.40
  Leptin, Mean: 8.95 ng/mL
  Leptin, Median: 6.03 ng/mL
  UACR, Mean: 27.90 g/kg
  UACR, Median: 11.10 g/kg
  UGCR, Mean: 60.12 mg/mg
  UGCR, Median: 57.96 mg/mg
[6]
  Achieving HbA1c target of <6.5%, odds ratio (logistic regression model): 1.27
  Achieving HbA1c target of <7%, odds ratio (logistic regression model): 1.17
  Change from baseline in FPG, ANCOVA LS mean difference: -3.49 mg/dL
  Change from baseline in body weight, ANCOVA LS mean difference: -0.15 kg
  Change from baseline in fasting C-peptide, ANCOVA LS mean difference: -0.01 ng/mL
  Therapeutic glycemic response 1, odds ratio (logistic regression model): 1.15
  Therapeutic glycemic response 2, odds ratio (logistic regression model): 0.98
  Therapeutic glycemic response 3, odds ratio (logistic regression model): 1.22
[7]
  Body weight, Mean: 66.19 kg
  Change from baseline in FPG, ANCOVA LS mean: -27.21 mg/dL
  Change from baseline in FPG, Mean: -26.31 mg/dL
  Change from baseline in FPG, Median: -20.00 mg/dL
  Change from baseline in body weight, ANCOVA LS mean: -3.15 kg
  Change from baseline in body weight, Mean: -3.09 kg
  Change from baseline in body weight, Median: -3.00 kg
  Change from baseline in fasting C-peptide, ANCOVA LS mean: -0.09 ng/mL
  Change from baseline in fasting C-peptide, Mean: -0.09 ng/mL
  Change from baseline in fasting C-peptide, Median: -0.07 ng/mL
  FPG, Mean: 113.03 mg/dL
  FPG, Median: 110.00 mg/dL
  Fasting C-peptide, Mean: 0.64 ng/mL
  Fasting C-peptide, Median: 0.63 ng/mL
  Subjects achieving HbA1c target of <6.5%, (%): 21.01%
  Subjects achieving HbA1c target of <7%, %: 66.39%
  body weight, Median: 65.10 kg
  Subjects achieving therapeutic glycemic response 2, %: 81.51%
  Subjects achieving therapeutic glycemic response 3, %: 78.15%
Week 24, per-protocol set, response 1 = HbA1c change >0.5% or HbA1c <7%, enavogliflozin 0.3 mg, dapagliflozin 10 mg
  Subjects achieving therapeutic glycemic response 1, %: 86.55%
